Counter-ions that a name gives are not always drawn.

The term melting point denotes the temperature of the solid-liquid transition. The IC50 is the concentration that gives 50% inhibition.

In data set [1] the test system is human neuroblastoma strains SH-SY-5Y and SK-N-BE Bep 75. As to the kind of experiment: Measurement of apoptosis (NGF-induced, cell death detection ELISA). In kind it is cell-based. As to conditions: SH-SY5Y, NGF 10 ng/ml, cell strain not given, read-out: IC50, inhibitory activity on NGF-induced apoptosis. On the procedure: The SH-SY-5Y strain (human neuroblastoma) is cultured conventionally in a DMEM culture medium (Dulbecco's Modified Eagle's Medium) (Gibco BRL, France) containing FCS (5%) (foetal calf serum) (Boehringer Mannheim, Germany), sodium pyruvate (1 mM) and glutamine (4 mM) in culture flasks coated with collagen (Becton Dickinson, France).
(§1) The SK-N-BE parent strain (human neuroblastoma) and the Bep 75 clone, stably expressing the whole form of the human p75^NTRreceptor (SK-N-BE Bep 75) are cultured conventionally in a RPMI culture medium containing FCS (5%), sodium pyruvate (1 mM) and glutamine (4 mM). For the SK-N-BE Bep 75 cells, hygromycin (200 μl/20 ml of medium) is added as selection agent.
The cells (human neuroblastoma strains SH-SY-5Y and SK-N-BE Bep 75) are placed in 35 mm diameter Petri dishes (Biocoat collagen I), (10^5cells/well) in an appropriate culture medium containing 5% of FCS for 24 h. […] The degrees of apoptosis are measured 48 hours after the treatments in the case of the SH-SY-5Y strain, and 24 hours after the treatments in the case of the SK-N-BE Bep 75 strain, by quantification of the DNA fragment-associated cytoplasmic histones (cell death detection ELISA, Boehringer Mannheim, Germany). The degrees of apoptosis are expressed as amount of oligonucleosomes/10^5cells. […]
(In an ELISA, binding on a coated surface is turned into a signal by an enzyme label.)

For data set [2], the target named is T1, p75NTR receptor (Homo sapiens, UniProt P08138).
T1 sequence (P08138 29-427): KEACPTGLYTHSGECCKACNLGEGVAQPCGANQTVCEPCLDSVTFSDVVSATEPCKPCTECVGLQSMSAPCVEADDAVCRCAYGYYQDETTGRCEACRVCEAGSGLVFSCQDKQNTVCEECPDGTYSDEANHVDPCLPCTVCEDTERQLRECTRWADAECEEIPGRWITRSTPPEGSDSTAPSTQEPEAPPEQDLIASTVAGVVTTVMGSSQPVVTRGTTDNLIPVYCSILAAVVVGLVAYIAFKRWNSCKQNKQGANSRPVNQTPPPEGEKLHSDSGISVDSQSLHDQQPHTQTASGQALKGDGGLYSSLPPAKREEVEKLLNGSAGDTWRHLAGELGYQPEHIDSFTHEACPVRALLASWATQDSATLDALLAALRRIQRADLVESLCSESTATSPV
The data set can be described thus: Dimerization of the p75NTR receptor independently of its ligand (soluble p75NTR-alkaline phosphatase binding to SK-N-BE Bep 75 cells). On the set-up: the Bep 75 clone, stably expressing the whole form of the human p75^NTRreceptor; a soluble form of the p75^NTRreceptor (extracellular part of the receptor); expressed in transfected cells; host or cells: SK-N-BE Bep 75 cells (membrane receptor); transiently transfected HEK293 cells (secreted soluble p75NTR-alkaline phosphatase, used as culture supernatant). As to conditions: soluble p75NTR-alkaline phosphatase 10 nM, 1 h preincubation at 37° C. On the procedure:
as §1
Study of the dimerization of the p75^NTRreceptor independently of its ligand
The p75^NTRreceptor dimerization study is carried out on a cell suspension of the SK-N-BE Bep 75 strain. The cells (2.5 10^4cells/well) are placed in wells (96-well plate) for 24 h, and then preincubated for 1 h at 37° C. in the presence or absence of the compounds according to the invention. Supernatant is then added, this supernatant being derived from the culture of HEK293 human cells of renal origin expressing, after 48 h of transfection, and secreting a soluble form of the p75^NTRreceptor (extracellular part of the receptor) coupled to an alkaline phosphatase, at the final concentration of 10 nM. The quantification of the specific binding of the soluble p75^NTRreceptor to the receptor present on SK-N-BE Bep 75 cells is determined by measuring the alkaline phosphatase enzymatic activity after incubation of the cells for 1 hour at 37° C. in the presence of the supernatant. After filtration and transfer of the filters into 24-well plates, the alkaline phosphatase activity is determined by adding CDP-Star chemiluminescent substrate (ready-to-use, Roche).

Data set [3] has as its target T1, p75NTR receptor. As to the kind of experiment: Binding of 125I NGF to the p75NTR receptor (competition, SK-N-BE Bep 75 cell suspension). As to conditions: SK-N-BE Bep 75 cells; 125I NGF 0.3 nM. On the set-up: the Bep 75 clone, stably expressing the whole form of the human p75^NTRreceptor; expressed in transfected cells; host or cells: SK-N-BE Bep 75 (human neuroblastoma clone, hygromycin selection). On the procedure: as §1
Study of the binding of the ^125I NGF to the p75^NTRreceptor
The NGF binding study (nerve grown factor radiolabelled with iodine-125, Amersham—2000 Ci/mmol) is carried out on a cell suspension of the SK-N-BE Bep 75 strain in accordance with the method described by Weskamp (Neuron, 1991, 6, 649-663). The nonspecific binding is determined by measuring the total binding after one hour of pre-incubation with the cells at 37° C. in the presence of non-radiolabelled NGF (1 μM). The specific binding is calculated by the difference between the total binding measurement and the non-specific binding measurement. The competition experiments are carried out using an iodinated NGF (^125I NGF) concentration of 0.3 nM.

Regarding `O=C(CN1CCN(c2ccc(C(F)(F)F)cn2)C(=O)C1)N1CC=C(c2ccc(Cl)c(C(F)(F)F)c2)CC1` (as salt: HCl) [Compound 1, 4-{2-[4-(4-chloro-3-trifluoromethylphenyl)-3,6-dihydro-2H-pyridin-1-yl]-2-oxoethyl}-1-(5-trifluoromethylpyridin-2-yl)piperazin-2-one], the melting point lay in the range of 210 to 211 °C.
The same measure, in the same setting: under `Cc1ccc(N2CCN(CC(=O)N3CC=C(c4ccc(Cl)c(C(F)(F)F)c4)CC3)CC2=O)nc1` (as salt: HCl) [Compound 2, 4-{2-[4-(4-chloro-3-trifluoromethylphenyl)-3,6-dihydro-2H-pyridin-1-yl]-2-oxoethyl}-1-(5-methylpyridin-2-yl)piperazin-2-one] stands 236 to 239 °C.
Turning to `O=C(CN1CCN(c2ccccn2)C(=O)C1)N1CC=C(c2ccc(Cl)c(C(F)(F)F)c2)CC1` [Compound 5, 4-{2-[4-(4-chloro-3-trifluoromethylphenyl)-3,6-dihydro-2H-pyridin-1-yl]-2-oxoethyl}-1-pyridin-2-ylpiperazin-2-one], in data set [1], the IC50 stood at 52 nM.
Consider `O=C(CN1CCN(c2ccc(C(F)(F)F)cn2)C(=O)C1)N1CC=C(c2ccc(Cl)c(C(F)(F)F)c2)CC1` [Compound 1, 4-{2-[4-(4-chloro-3-trifluoromethylphenyl)-3,6-dihydro-2H-pyridin-1-yl]-2-oxoethyl}-1-(5-trifluoromethylpyridin-2-yl)piperazin-2-one], for which the results for the IC50 (at p75NTR receptor [2]; on p75NTR receptor [3]; in data set [1]) were 1.34 nM, 5.2 nM and 1.61 nM, respectively.
The molecule `O=C(CN1CCN(c2ccccn2)C(=O)C1)N1CC=C(c2ccc(Cl)c(C(F)(F)F)c2)CC1` (as salt: HCl) [Compound 5, 4-{2-[4-(4-chloro-3-trifluoromethylphenyl)-3,6-dihydro-2H-pyridin-1-yl]-2-oxoethyl}-1-pyridin-2-ylpiperazin-2-one] displayed a melting point of 160 to 163 °C.
On to `Cc1ccc(N2CCN(CC(=O)N3CC=C(c4ccc(Cl)c(C(F)(F)F)c4)CC3)CC2=O)nc1` [Compound 2, 4-{2-[4-(4-chloro-3-trifluoromethylphenyl)-3,6-dihydro-2H-pyridin-1-yl]-2-oxoethyl}-1-(5-methylpyridin-2-yl)piperazin-2-one], for which the IC50 at p75NTR receptor [2] was 3.88 nM.
`O=C(CN1CCN(c2ccc(C(F)(F)F)cn2)C(=O)C1)N1CC=C(c2ccc(Cl)cc2)CC1` [Compound 3, 4-{2-[4-(4-chlorophenyl)-3,6-dihydro-2H-pyridin-1-yl]-2-oxoethyl}-1-(5-trifluoromethylpyridin-2-yl)piperazin-2-one] came in with a melting point of 141 to 143 °C. The IC50 at p75NTR receptor [2] is 0.11 nM. The IC50 at p75NTR receptor [3] was found to be 0.1 nM.

These data come from patent US8247404B2, “Derivatives of 2-oxoalkyl-1-piperazin-2-one, preparation method thereof and therapeutic use of same” (Sanofi, priority 2008, dated 2012).
